Measured values taken from US5284834A, “Adenosine functionalized congeners as cardiovascular treating agents for animals and methods for using same” (priority 1992, dated 1994).
Entries after “also recorded” stand apart in the source; their conditions may differ. Like-named read-outs stand apart in the source and are kept apart here.

Assays:
A1-receptors = details: background; cited from earlier work
[1] = target: T1, Coronary A2-Adenosine Receptor (Canis lupus familiaris, UniProt P11617); experiment: Coronary vasoactivity in the anesthetized, open-chest dog (intracoronary infusion; MPR from EC50); type: in vivo; details: for A2 Receptor MPR Relative to MeAdo: molar potency ratio relative to N6-methyladenosine (set equal to 1.0); for A2 Receptor MPR Relative to MeAdo / A2 Receptor MPR Relative to Ado: coronary; for A2 Receptor MPR Relative to Ado: molar potency ratio: EC50 of adenosine divided by that of the analogue; for A2/A1 potency ratio (MPR(A2)/MPR(A1)): ratio of MPR (MeAdo) at dog coronary A2 receptor to MPR at rat brain A1 receptor; for coronary vasoactivity (in words): intracoronary infusion; for A2 versus A1 receptor selectivity (in words): dog coronary A2 versus rat brain A1
T1 construct: The assay of coronary vasoactivity in the anesthetized, open-chest dog; from tissue; host or cells: coronary vessels in situ, anesthetized open-chest dog
T1 sequence (P11617 whole entry, the tested form may be a part): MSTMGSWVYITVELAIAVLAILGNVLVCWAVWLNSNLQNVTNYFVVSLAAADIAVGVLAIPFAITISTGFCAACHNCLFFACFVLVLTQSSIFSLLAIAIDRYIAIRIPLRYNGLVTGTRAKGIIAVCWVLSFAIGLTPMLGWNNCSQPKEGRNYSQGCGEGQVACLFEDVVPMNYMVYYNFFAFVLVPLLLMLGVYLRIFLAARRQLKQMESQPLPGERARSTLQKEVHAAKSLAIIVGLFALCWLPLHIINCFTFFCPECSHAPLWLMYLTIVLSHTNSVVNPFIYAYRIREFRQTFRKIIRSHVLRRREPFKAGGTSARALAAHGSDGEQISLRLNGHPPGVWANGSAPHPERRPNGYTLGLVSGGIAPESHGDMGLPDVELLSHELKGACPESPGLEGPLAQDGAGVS
From the text: (§1) In the present invention there is compared the A1 - and A2 -potencies of a series of long-chain derivatives of adenosine suitable for attachment to "carriers," such as peptides or proteins, and for immobilization to polymeric matrices for affinity chromatography of adenosine receptors. The method employed is a comparison of increasing coronary blood flow via activation of an A2 -adenosine receptor versus an A1 -binding assay in rat brain.
(§2) The potencies at A2 -receptors (Table 1) are expressed as a molar potency ratio of the EC50 value of adenosine divided by that of the adenosine analogue. A common reference compound on which to base molar potency ratios was needed to facilitate comparison of activities at A1 and A2 receptors. Adenosine itself cannot be used as a reference in the A1 binding assay since treatment of the membranes with adenosine deaminase is essential. […] Thus, MeAdo was used as a suitable reference compound.
The assay of coronary vasoactivity in the anesthetized, open-chest dog, is described by Kusachi et al, J. Med. Chem., in press, and Olsson, et al, J. Circ. […] The assay estimates an EC-50, the concentration of analogue which produces a half maximum change in coronary conductance (reciprocal resistance). To reduce between-animal variability activity is expressed as a molar potency ratio (MPR) the value of the EC-50 of adenosine divided by that of the analogue. Owing to the low water solubility of some of the analogues, solutions for intracoronary infusion were prepared by diluting stock solutions in dimethyl sulfoxide. In such instances, solutions of adenosine used to establish a standard of potency also contained dimethyl sulfoxide. […]

[2] = target: T2, Brain A1-adenosine receptor (Rattus norvegicus, UniProt P25099); experiment: A1-binding assay: antagonism of binding of 1nM [3H]N6-cyclohexyladenosine to rat cerebral cortical membranes; details: for A1 Receptor MPR Relative to MeAdo: molar potency ratio derived from Ki values, rat cerebral cortical membranes
T2 construct: -cyclohexyladenosine to rat cerebral cortical membranes; from tissue; host or cells: rat cerebral cortical membranes
T2 sequence (P25099 1-326): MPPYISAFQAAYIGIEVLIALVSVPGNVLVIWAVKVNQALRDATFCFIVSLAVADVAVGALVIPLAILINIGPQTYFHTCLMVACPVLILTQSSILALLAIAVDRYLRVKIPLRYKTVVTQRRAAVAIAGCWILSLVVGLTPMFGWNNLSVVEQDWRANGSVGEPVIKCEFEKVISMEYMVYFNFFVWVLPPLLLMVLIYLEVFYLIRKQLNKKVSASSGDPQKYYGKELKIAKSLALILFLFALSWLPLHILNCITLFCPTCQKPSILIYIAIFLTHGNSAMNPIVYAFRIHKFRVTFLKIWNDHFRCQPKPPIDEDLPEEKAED
From the text: as §1
^b Molar potency ratio relative to adenosine, derived from Ki
values for antagonism of binding of 1nM [^3 H]N^6
-cyclohexyladenosine to rat cerebral cortical membranes.
as §2

A2-receptors = details: background; cited from earlier work
[3] = Octanol water partition coefficients; type: physicochemical; details: for logP: octanol water, read-out: octanol water partition coefficient
From the text: B. Certain of the conjugates have ionizable groups on the attached chain. These groups alter the biodistribution of the compounds and make them less likely to enter the brain and produce central depressant effects. The effect of charged groups is reflected in octanol water partition coefficients as follows: […]

[4] = Entry into the brain and central side effects; details: in vivo
[5] = target: T3, A2-adenosine receptor (adenylate cyclase, human platelet membranes) (Homo sapiens, UniProt P29274); experiment: Stimulation of adenylate cyclase in human platelet membranes; type: biochemical
T3 construct: stimulation of adenylate cyclase in human platelet membranes; from tissue; host or cells: human platelet membranes
T3 sequence (P29274 whole entry): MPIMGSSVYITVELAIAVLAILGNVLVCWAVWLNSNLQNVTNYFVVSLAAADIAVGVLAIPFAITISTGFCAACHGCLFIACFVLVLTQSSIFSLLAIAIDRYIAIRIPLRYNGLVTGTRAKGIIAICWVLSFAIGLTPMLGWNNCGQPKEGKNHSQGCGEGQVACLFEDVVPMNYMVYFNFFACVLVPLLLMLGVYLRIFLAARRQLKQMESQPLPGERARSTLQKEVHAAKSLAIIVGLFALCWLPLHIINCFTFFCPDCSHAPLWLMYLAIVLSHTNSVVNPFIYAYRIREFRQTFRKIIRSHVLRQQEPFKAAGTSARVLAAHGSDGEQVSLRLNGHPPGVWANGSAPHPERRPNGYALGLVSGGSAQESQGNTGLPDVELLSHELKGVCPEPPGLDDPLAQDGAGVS

Molecule | A2 Receptor MPR Relative to MeAdo ([1]; dog) | A2 Receptor MPR Relative to Ado ([1]; dog) | A2/A1 potency ratio (MPR(A2)/MPR(A1)) [1] | A1 Receptor MPR Relative to MeAdo [2] | coronary vasoactivity (in words) ([1]; dog) | further results
OC[C@H]1O[C@@H](n2cnc3c(NC4CCCCC4)ncnc32)[C@H](O)[C@@H]1O [Compound 5, N^6 -cyclohexyladenosine] | – | – | – | – | – | order of potency at A1-receptors (A1-receptors): R-PIA, CHA>NECA>S-PIA
CNC(=O)CNC(=O)[C@H](Cc1ccc(NC(=O)Cc2ccc(Nc3ncnc4c3ncn4[C@@H]3O[C@H](CO)[C@@H](O)[C@H]3O)cc2)cc1)NC(=O)OC(C)(C)C [Compound 12] | 88 | 4.4 ± 0.4 | greater than 10 | 4.6 | – | A2/A1 potency ratio (MPR(A2)/MPR(A1)) ([1]; listed as drawing 7): 19
NNC(=O)Cc1ccc(NC(=O)Cc2ccc(Nc3ncnc4c3ncn4[C@@H]3O[C@H](CO)[C@@H](O)[C@H]3O)cc2)cc1 [Compound 15] | 70 | 3.5 ± 0.8 | 5.3 | 13 | – | –
COC(=O)[C@H](Cc1ccc(NC(=O)Cc2ccc(Nc3ncnc4c3ncn4[C@@H]3O[C@H](CO)[C@@H](O)[C@H]3O)cc2)cc1)NC(=O)C(F)(F)F [Compound 11] | 60 | 3.0 ± 0.7 | greater than 10 | 3.3 | – | A2/A1 potency ratio (MPR(A2)/MPR(A1)) ([1]; listed as drawing 6): 18
C[C@@H](Cc1ccccc1)Nc1ncnc2c1ncn2[C@@H]1O[C@H](CO)[C@@H](O)[C@H]1O [S-PIA] | – | – | – | – | – | order of potency at A1-receptors (A1-receptors): R-PIA, CHA>NECA>S-PIA
O=C(CCc1ccc(O)cc1)NCCNC(=O)Cc1ccc(NC(=O)Cc2ccc(Nc3ncnc4c3ncn4[C@@H]3O[C@H](CO)[C@@H](O)[C@H]3O)cc2)cc1 [Compound 17] | 56 | 2.8 ± 0.1 | 4.2 | 13 | – | –
OC[C@H]1O[C@@H](n2cnc3c(Nc4ccccc4)ncnc32)[C@H](O)[C@@H]1O [Compound 6, N^6 -phenyladenosine, reference compound] | 28 | 1.4 | 1.6 | 18 | can exhibit some activity at this A2 -receptor | –
Avidin | – | – | – | – | lacked coronary vasoactivity | –
CCNC(=O)[C@H]1O[C@@H](n2cnc3c(N)ncnc32)[C@H](O)[C@@H]1O [Compound 1, N-Ethyladenosine-5'-uronamide] | – | – | – | – | exceptionally potent | order of potency at A1-receptors (A1-receptors): R-PIA, CHA>NECA>S-PIA; potency at A2-receptors (rank in words) (A2-receptors): clearly the most potent
CNC(=O)Cc1ccc(NC(=O)Cc2ccc(Nc3ncnc4c3ncn4[C@@H]3O[C@H](CO)[C@@H](O)[C@H]3O)cc2)cc1 [Compound 14] | ≥ 100 | 7.2 ± 1443 | – | 9.0 | three most active analogues | A2 versus A1 receptor selectivity (in words) [1]: highly divergent at A1 and A2 receptors
O=C(CCCC[C@@H]1SC[C@@H]2NC(=O)N[C@@H]21)NCCNC(=O)Cc1ccc(NC(=O)Cc2ccc(Nc3ncnc4c3ncn4[C@@H]3O[C@H](CO)[C@@H](O)[C@H]3O)cc2)cc1 [Compound 18] | 60 | 3.0 ± 0.2 | – | 5.5 | – | A2 versus A1 receptor selectivity (in words) [1]: highly divergent at A1 and A2 receptors
C[C@H](Cc1ccccc1)Nc1ncnc2c1ncn2[C@@H]1O[C@H](CO)[C@@H](O)[C@H]1O [Compound 4, N^6 -R-1-Phenyl-2-propyladenosine] | – | – | – | – | – | logP [3]: 2; brain entry [4]: enters the brain; central side effects [4]: produces central side effects; order of potency at A1-receptors (A1-receptors): R-PIA, CHA>NECA>S-PIA
COC(=O)Cc1ccc(NC(=O)Cc2ccc(Nc3ncnc4c3ncn4[C@@H]3O[C@H](CO)[C@@H](O)[C@H]3O)cc2)cc1 [Compound 13] | 64 | 33.2 ± 1.6 | 2.7 | 24 | – | –
Nc1nc(Cl)nc2c1ncn2[C@@H]1O[C@H](CO)[C@@H](O)[C@H]1O [Compound 2, 2-Chloroadenosine, reference compound] | 540 | 27 | 54 | 10 | – | –
O=C(O)Cc1ccc(Nc2ncnc3c2ncn3[C@@H]2O[C@H](CO)[C@@H](O)[C@H]2O)cc1 [Compound 8, N^6-(4-carboxymethylphenyl)adenosine] | – | – | – | 0.29 | only weakly active | % increase in flow over control ([1]; @ 21 μM plasma nucleoside concentration achieved during infusion): 27%; A1-binding activity (in words) [2]: only weakly active; IC50 ([5]; human platelet membranes, read-out: IC50 (printed lC50), stimulation of adenylate cyclase): 26 µM; polarity compared with compound 4 [3]: considerably more polar than 4; logP [3]: < -1.4
CNC(=O)Cc1ccc(Nc2ncnc3c2ncn3[C@@H]2O[C@H](CO)[C@@H](O)[C@H]2O)cc1 [Compound 9] | – | – | – | – | enhanced activity at both receptor subtypes | –
CNc1ncnc2c1ncn2[C@@H]1O[C@H](CO)[C@@H](O)[C@H]1O [Compound 3, N^6 -methyladenosine, reference compound] | 1.0 | 0.05 | 1.0 | 1.0 | – | fold weaker than adenosine at A2-receptors ([1]; dog, in vivo): ≥ 20 -fold; fold weaker than adenosine at A1-receptors [2]: at least 10 -fold
NCCNC(=O)Cc1ccc(NC(=O)Cc2ccc(Nc3ncnc4c3ncn4[C@@H]3O[C@H](CO)[C@@H](O)[C@H]3O)cc2)cc1 [Compound 16] | – | 7.8 ± 2.5 | – | – | three most active analogues; also recorded: high efficacy as a coronary vasodilator | IC50 [5]: 0.98 µM; polarity compared with compound 4 [3]: considerably more polar than 4; logP [3]: -0.81
Cc1ccc(Nc2ncnc3c2ncn3[C@@H]2O[C@H](CO)[C@@H](O)[C@H]2O)cc1 [Compound 7, N^6 -p-tolyladenosine, reference compound] | 27 | 1.35 | 1.1 | 24 | can exhibit some activity at this A2 -receptor | –
Cc1ccc(NC(=O)Cc2ccc(Nc3ncnc4c3ncn4[C@@H]3O[C@H](CO)[C@@H](O)[C@H]3O)cc2)cc1 [Compound 10] | 42 | 2.1 ± 1.3 | 1.2 | 35 | enhanced activity at both receptor subtypes | A1-binding activity (in words) [2]: enhanced activity at both receptor subtypes
